Experiment [1] concerns the target A. niger Fdc^UbiX (A. niger Fdc1) (Aspergillus niger, UniProt A2QHE5). The experiment can be described thus: UV-Vis and activity, reversible inhibition. The class given is biochemical. As to conditions: prFMN-loaded enzyme.
In experiment [2] the target is Aspergillus niger Fdc1 (Aspergillus niger) (UniProt A2QHE5). The experiment can be described thus: native MS.

The values that follow come from PMC4988494 (Nature, 2015).

As to `O=CCc1ccccc1` [phenylacetaldehyde], the “UV-Vis and activity, reversible inhibition” value in experiment [1] is listed as “incubation with phenylpyruvate or phenylacetaldehyde leads to reversible enzyme inhibition”.

On to “Aspergillus niger Fdc1 (from UniProt A2QHE5 1-500) (enzyme)”, for which the stoichiometry N in experiment [2] is 2.
